# Data published in patent US11065194B2, “Cosmetic use of extracts of Salvia miltiorrhiza roots, special extracts of Salvia miltiorrhiza roots and cosmetic compositions containing such extracts” (SOCIETE INDUSTRIELLE LIMOUSINE D'APPLICATION BIOLOGIQUE, priority 2018, dated 2021).
# Marks after values point to notes of the source that are not given here.
# Experiments:
# [1] = target: T1, TRPV1 receptors of human sensory neurons (Homo sapiens, UniProt Q8NER1); assay: Inhibition of TRPV1 receptors of sensory neurons activated by capsaicin (cytoplasmic calcium, Fluo-4 probe); assay type: cell-based; conditions: tested at 10 μM
# T1 construct: endogenous in cells; host or cells: human sensory neurons derived from hiPS cells, in co-culture with normal human keratinocytes
# T1 sequence (Q8NER1 whole entry): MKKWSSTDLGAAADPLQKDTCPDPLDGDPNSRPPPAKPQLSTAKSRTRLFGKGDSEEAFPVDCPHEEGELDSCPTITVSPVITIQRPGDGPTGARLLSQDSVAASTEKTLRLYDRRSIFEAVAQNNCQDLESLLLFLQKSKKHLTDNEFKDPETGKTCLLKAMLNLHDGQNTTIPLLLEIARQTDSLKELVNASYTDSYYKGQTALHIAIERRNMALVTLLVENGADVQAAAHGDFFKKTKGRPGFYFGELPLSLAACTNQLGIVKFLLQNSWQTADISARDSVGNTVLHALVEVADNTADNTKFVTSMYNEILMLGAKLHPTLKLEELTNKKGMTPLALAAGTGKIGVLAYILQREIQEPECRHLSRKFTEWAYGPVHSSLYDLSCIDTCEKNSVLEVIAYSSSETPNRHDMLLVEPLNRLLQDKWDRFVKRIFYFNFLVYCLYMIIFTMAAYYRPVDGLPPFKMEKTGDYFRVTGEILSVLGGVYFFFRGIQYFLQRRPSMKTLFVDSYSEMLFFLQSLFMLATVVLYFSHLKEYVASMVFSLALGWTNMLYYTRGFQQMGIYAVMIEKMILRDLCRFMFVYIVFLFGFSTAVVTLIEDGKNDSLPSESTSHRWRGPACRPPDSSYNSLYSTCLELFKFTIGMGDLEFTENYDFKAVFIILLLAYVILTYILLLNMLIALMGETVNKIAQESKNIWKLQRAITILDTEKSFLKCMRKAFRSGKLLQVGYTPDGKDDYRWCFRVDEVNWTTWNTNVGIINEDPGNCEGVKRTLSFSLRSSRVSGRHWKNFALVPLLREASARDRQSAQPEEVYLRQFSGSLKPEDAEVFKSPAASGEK
# Description: The aim of this study is to evaluate the capacity of an extract of Salvia miltiorrhiza roots to inhibit the activity of TRPV1 (Transient receptor potential vanilloid 1) receptors of human sensory neurons that play a major role in the detection and transmission of sensations of pain and itching to the central nervous system.
# This study was performed on a model of human sensory neurons derived from hiPS cells (human-induced Pluripotent Stem Cells) in co-culture with human keratinocytes. The activation of TRPV1 receptors is characterized by a massive entry of calcium into the cytoplasm of the sensory neurons that can be captured by a fluorescent probe and analyzed by epifluorescence microscopy.
# The operating protocol is described below: • D0, culture of sensory neurons derived from hiPS cells: • The hiPS (human-induced Pluripotent Stem) cells are seeded in a culture medium and incubated at 37° C. • D14, placed in co-culture with normal human keratinocytes: • Some human keratinocytes are seeded onto the carpet of sensory neurons. […] This entry of calcium is captured by the Fluo-4 probe, causing an increase in the level of fluorescence in the neurons. The greater the increase in the level of fluorescence, the more the TRPV1 receptors are activated.
# The average of the increase in the level of fluorescence was compared in percentage terms to the non-activated control condition.
# [2] = test system: PGE2; assay: Secretion of PGE2 by human keratinocytes treated with fine particles (PM), ELISA; assay type: cell-based; conditions: tested at 0.5 μM
# Description: The purpose of this study is to evaluate the capacity of an extract of Salvia miltiorrhiza roots to limit the secretion of prostaglandins E2 (PGE2) in the event of an inflammation caused by a pollutant (fine particles: PM).
# This study was performed by ELISA assay on the culture supernatant of human keratinocytes subjected to a treatment with fine particles (PM) mimicking a polluted environment.
# The operating protocol of the study is described below. • D0:
# Normal human keratinocytes were seeded in a culture medium and incubated at 37° C. in an atmosphere containing 5% CO2. • D2: • Pre-treatment:
# The keratinocytes were pretreated with or without the extract of Example 1 at 0.025% and 0.05% (V/V) or with capsazepine at 0.5 μM (inhibitor of TRPV1). The cells were then incubated for 30 minutes at 37° C. in an atmosphere containing 5% CO2. • Treatment with fine particles (PM):
# The keratinocytes were treated with a solution of particles.
# The cells were then incubated for 24 hours at 37° C. in an atmosphere containing 5% CO2. • D3, recovery of supernatants:
# The culture supernatants were recovered and the PGE2s were assayed using an ELISA Kit (Enzo Life Sciences).
# The test of Study II.2 on the secretion of PGE2 was performed on the extract and on Fraction A.
# [3] = test system: COX-2; assay: Synthesis of COX-2 on SILABSKIN REs treated with fine particles (PM), immunohistochemistry; assay type: cell-based, human; conditions: tested at 1 μM
# Source text: The purpose of this study is to evaluate the capacity of an extract of Salvia miltiorrhiza roots to limit the synthesis of cyclo-oxygenase 2 (COX-2) in the event of an inflammation caused by a pollutant (fine particles: PM).
# The expression of COX-2 has been evaluated by immunohistochemistry on SILABSKIN® REs subjected to repeated treatments with fine particles (PM) in order to mimic a polluted environment.
# Human keratinocytes were cultivated in a specific culture medium • D0: • Normal human keratinocytes were seeded on inserts then incubated at 37° C. in an atmosphere containing 5% CO2. • D2 to D13: • The culture medium was changed every 2 days. • D14 and D15, treatments of SILABSKIN® REs: • SILABSKIN® REs were treated topically with a solution of fine particles (PM), with or without the presence of the extract of Example 1 at 0.25% (V/V), or with capsazepine at […]. • D16: • The SILABSKIN® REs were recovered, fixed, dehydrated and embedded in paraffin. Sections (4 μm) were then cut using a microtome (RM2125RT, Leica).
# B. Analysis of the Expression of COX-2 by Immunohistochemical Marking • Removal of paraffin with xylene • Unmasking the antigenic sites • Saturation • Primary antibody: rabbit monoclonal anti-COX-2 antibody • Secondary antibody: coupled Alexa Fluor® 488 […] antibody
# The expression of COX-2 was proportional to the intensity of the green fluorescence present on the SILABSKIN® REs. A quantitative analysis of the images was performed with the aid of Matlab® version R2012b (MathWorks) software. The results were expressed in arbitrary units (UA).
smiles,measurement,setting,value
"Oc1cc2c(cc1O)CN(C(=S)NCCc1ccc(Cl)cc1)CCC2 [Capsazepine, capsazepine]",inhibition at 10 µM,"[1]; capsaicin 10 μM, read-out: Inhibition of TRPV1 receptors/activated control neurons",199%
same,Mobilization of cytoplasmic calcium,"[1]; neurons activated by capsaicin 10 μM, non-activated control = 100",131*** %
same,inhibition at 0.5 µM,"[2]; Homo sapiens, Keratinocyte, read-out: Inhibition of the PM-caused increase in secretion of PGE2",78%
same,PGE2 Content/PM-treated control,[2],−78%
same,PGE2 Content,[2]; keratinocytes treated with PMs,433* pg/mg of proteins
same,Inhibition of the PM-caused increase in expression of COX-2,[3],38%
same,Synthesis of COX-2/polluted control,[3],−38%
same,Synthesis of COX-2,[3]; polluted SILABSKIN REs (PM),659* ×10^3 UA
